Measured values taken from the supplement of paper PMC10307832.

Compound: CN(C)C/C=C/C(=O)Nc1cc2c(Nc3ccc(F)c(Cl)c3)ncnc2cc1O[C@H]1CCOC1 [Afatinib]
Experiment: relative viability (nuclei count vs DMSO), 5 days (fraction); higher = more cells survive
Summary of the method: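 Nuclei counted with MetaXpress define viability as the ratio of treated to vehicle wells, given as a median across plates. The lung cancer cell lines were in 1536-well plates, pinned with five √10-spaced library-drug doses and imaged at 4× after 5 days and Hoechst staining. Plates passed with control CV below 25% and at least one doubling.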

| Cell Line | relative viability (0.005 µM) | relative viability (0.01581 µM) | relative viability (0.05 µM) | relative viability (0.1581 µM) | relative viability (0.5 µM) |
| --- | --- | --- | --- | --- | --- |
| 201T | 1.01 | 0.942 | 0.944 | 0.92 | 0.956 |
| A-427 | 1.05 | 0.918 | 0.99 | 1.02 | 1.01 |
| ABC-1 | 0.876 | 0.77 | 0.876 | 0.874 | 0.912 |
| BEN | 1.04 | 0.897 | 1.05 | 1.09 | 1.06 |
| CAL-12T | 1 | 0.843 | 0.748 | 0.489 | 0.654 |
| COR-L23 | 1.08 | 0.944 | 1.11 | 1.04 | 1.01 |
| COR-L 105 | 0.522 | 0.387 | 0.45 | 0.287 | 0.309 |
| Calu-6 | 1.09 | 1 | 1.02 | 0.997 | 0.986 |
| ChaGo-K-1 | 1.07 | 1 | 0.996 | 0.977 | 0.999 |
| EKVX | 0.779 | 0.718 | 0.51 | 0.292 | 0.334 |
| EMC-BAC-2 | 1.12 | 0.821 | 1.14 | 1.01 | 1.02 |
| EPLC-272H | 0.915 | 0.687 | 0.831 | 0.718 | 0.718 |
| H3255 | 0.418 | 0.237 | 0.244 | 0.244 | 0.26 |
| HARA | 0.947 | 0.55 | 0.471 | 0.62 | 0.597 |
| HCC-15 | 1.04 | 1.06 | 1.04 | 0.979 | 0.999 |
| HCC-44 | 1.08 | 1 | 1.01 | 1.02 | 0.982 |
| HCC-78 | 1.07 | 0.89 | 0.898 | 0.791 | 0.815 |
| HCC-366 | 1.03 | 1.04 | 1.03 | 0.985 | 0.989 |
| HCC-827 | 0.172 | 0.169 | 0.212 | 0.175 | 0.162 |
| HOP-62 | 1.12 | 0.989 | 1.05 | 1.03 | 1.08 |
| IA-LM | 0.925 | 0.868 | 0.905 | 0.883 | 0.871 |
| LC-2-ad | 1.06 | 0.957 | 1.04 | 0.956 | 1.05 |
| LCLC-97TM1 | 1.1 | 0.878 | 1.01 | 0.993 | 0.943 |
| LCLC-103H | 0.962 | 0.945 | 0.974 | 0.945 | 1.03 |
| LK-2 | 1.25 | 0.91 | 0.926 | 0.977 | 0.956 |
| LOU-NH91 | 0.784 | 0.813 | 0.887 | 0.73 | 0.791 |

| Cell Line | relative viability (0.005 µM) | relative viability (0.01581 µM) | relative viability (0.05 µM) | relative viability (0.1581 µM) | relative viability (0.5 µM) |
| --- | --- | --- | --- | --- | --- |
| LU99A | 1.15 | 0.984 | 0.94 | 0.924 | 0.975 |
| LXF-289 | 1.01 | 0.97 | 0.947 | 0.94 | 0.94 |
| NCI-H23 | 1.1 | 0.976 | 0.922 | 0.97 | 0.792 |
| NCI-H322M | 0.705 | 0.495 | 0.533 | 0.545 | 0.419 |
| NCI-H358 | 0.825 | 0.566 | 0.455 | 0.282 | 0.302 |
| NCI-H441 | 1.08 | 0.997 | 1.18 | 0.982 | 0.948 |
| NCI-H460 | 1.01 | 1 | 0.996 | 1.01 | 1 |
| NCI-H520 | 1.08 | 0.978 | 0.995 | 1 | 0.96 |
| NCI-H522 | 0.929 | 0.785 | 0.703 | 0.786 | 0.735 |
| NCI-H596 | 1.09 | 0.913 | 0.933 | 0.936 | 0.928 |
| NCI-H647 | 0.999 | 0.878 | 0.998 | 0.968 | 1.04 |
| NCI-H650 | 1.06 | 0.974 | 1.07 | 0.89 | 0.875 |
| NCI-H661 | 1.02 | 0.863 | 0.831 | 0.626 | 0.691 |
| NCI-H727 | 0.787 | 0.765 | 0.758 | 0.694 | 0.837 |
| NCI-H838 | 1.01 | 0.966 | 0.988 | 0.918 | 1.05 |
| NCI-H1355 | 0.976 | 0.959 | 0.943 | 0.849 | 0.893 |
| NCI-H1395 | 1.07 | 0.744 | 1 | 1.05 | 0.849 |
| NCI-H1437 | 1.02 | 0.987 | 0.993 | 0.984 | 0.997 |
| NCI-H1563 | 0.992 | 0.932 | 0.97 | 0.895 | 0.99 |
| NCI-H1648 | 0.881 | 0.765 | 0.437 | 0.478 | 0.457 |
| NCI-H1650 | 0.755 | – | 0.896 | 0.696 | 0.736 |
| NCI-H1651 | 1.07 | 0.949 | 0.941 | 0.961 | 0.915 |
| NCI-H1666 | 0.95 | 0.894 | 0.75 | 0.707 | 0.801 |
| NCI-H1703 | 1.25 | 0.749 | 1.03 | 0.853 | 0.713 |
| NCI-H1734 | 0.998 | 0.979 | 1.02 | 0.968 | 1.03 |
| NCI-H1755 | 0.997 | 0.983 | 1.05 | 1 | 1.02 |

| Cell Line | relative viability (0.005 µM) | relative viability (0.01581 µM) | relative viability (0.05 µM) | relative viability (0.1581 µM) | relative viability (0.5 µM) |
| --- | --- | --- | --- | --- | --- |
| NCI-H1792 | 1.09 | 0.786 | 0.853 | 0.988 | 0.661 |
| NCI-H1793 | 0.829 | 0.616 | 0.558 | 0.418 | 0.536 |
| NCI-H1915 | 1.06 | 0.988 | 1 | 0.973 | 0.922 |
| NCI-H1944 | 0.916 | 0.906 | 0.794 | 0.575 | 0.73 |
| NCI-H1975 | 0.945 | 0.851 | 0.79 | 0.479 | 0.336 |
| NCI-H1993 | 0.935 | 0.75 | 0.84 | 0.776 | 0.692 |
| NCI-H2009 | 1.04 | 0.998 | 1.06 | 0.997 | 1.06 |
| NCI-H2023 | 0.968 | 0.85 | 0.898 | 0.882 | 0.886 |
| NCI-H2085 | 0.99 | 0.958 | 0.856 | 0.757 | 0.858 |
| NCI-H2087 | 1.06 | 0.857 | 1.04 | 0.998 | 0.895 |
| NCI-H2126 | 1.01 | 0.932 | 0.816 | 0.679 | 0.693 |
| NCI-H2170 | 0.907 | 0.837 | 0.445 | 0.276 | 0.253 |
| NCI-H2228 | 1.24 | 0.884 | 0.812 | 0.953 | 1.05 |
| NCI-H2342 | 0.896 | 0.936 | 0.889 | 0.826 | 0.726 |
| NCI-H2347 | 1.07 | 1.02 | 0.976 | 0.961 | 0.994 |
| NCI-H2405 | 1.01 | 0.959 | 1.08 | 0.957 | 1.02 |
| NCI-H3122 | 0.999 | 1.01 | 1.01 | 0.929 | 0.999 |
| PC-3 [JPC-3] | 0.553 | 0.406 | 0.443 | 0.439 | 0.469 |
| PC-14 | 0.371 | 0.224 | 0.298 | – | 0.282 |
| RERF-LC-KJ | 0.92 | 0.938 | 0.908 | 0.794 | 0.831 |
| SK-LU-1 | 1.07 | 1 | 1.07 | 1.05 | 1.06 |
| SK-MES-1 | 0.816 | 0.706 | 0.568 | 0.39 | 0.42 |
| SW 900 | 0.951 | 0.692 | 0.844 | 0.872 | 0.828 |
| SW 1573 | 0.978 | 0.962 | 1 | 0.962 | 0.925 |
| UMC-11 | 1.03 | 0.955 | 1.03 | 0.959 | 0.983 |
